These results are taken from patent publication USRE49687E1, “Thienopyrimidine and thienopyridine compounds and methods of use thereof” (The Regents of The University of Michigan, priority 2014, dated 2023).

This assay has as its target T1, menin-MLL interaction (Homo sapiens, UniProt O00255).
T1 sequence (O00255 1-610): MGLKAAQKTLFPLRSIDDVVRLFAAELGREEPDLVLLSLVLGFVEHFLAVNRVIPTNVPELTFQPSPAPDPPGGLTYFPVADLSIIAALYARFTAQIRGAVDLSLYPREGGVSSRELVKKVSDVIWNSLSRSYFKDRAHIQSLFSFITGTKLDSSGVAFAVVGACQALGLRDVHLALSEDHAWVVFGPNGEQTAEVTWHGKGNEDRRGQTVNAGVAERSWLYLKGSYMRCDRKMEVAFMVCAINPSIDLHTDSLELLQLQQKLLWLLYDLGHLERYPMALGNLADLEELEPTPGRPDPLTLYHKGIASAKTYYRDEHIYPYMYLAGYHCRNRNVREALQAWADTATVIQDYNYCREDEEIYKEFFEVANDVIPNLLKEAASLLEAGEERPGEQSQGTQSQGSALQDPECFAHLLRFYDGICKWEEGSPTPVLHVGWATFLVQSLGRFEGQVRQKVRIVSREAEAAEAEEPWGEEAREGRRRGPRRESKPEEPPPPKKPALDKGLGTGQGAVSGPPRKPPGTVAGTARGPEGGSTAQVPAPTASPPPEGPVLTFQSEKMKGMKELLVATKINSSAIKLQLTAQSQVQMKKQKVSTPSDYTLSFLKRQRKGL
The assay is described as follows: Fluorescence polarization (FP) competition assay of the menin-MLL interaction. The assay is classed as binding. The settings on record: inhibition of the menin-MLL interaction; read-out: IC50 values for Table 1 inhibitors of menin. Background: In fluorescence polarisation assays a small probe gives low polarisation when free and higher when bound to something large.

The IC50 is the concentration at which inhibition is half-maximal. In the case of `C=CC(=O)NC1CCN(CCn2c(C#N)cc3c(C)c(CN4CCC(Nc5ncnc6sc(CC(F)(F)F)cc56)CC4)ccc32)CC1` [Compound 25], the IC50 fell in the range of 30 to 100 nM. As to `C=CC(=O)N[C@H]1CCN(CCn2c(C#N)cc3c(C)c(CN4CCC(Nc5ncnc6sc(CC(F)(F)F)cc56)CC4)ccc32)C1` [Compound 31], the IC50 is less than 30 nM. As for `C=CC(=O)NCCC(O)(CO)Cn1c(C#N)cc2c(C)c(CN3CCC(Nc4ncnc5sc(CC(F)(F)F)cc45)CC3)ccc21` (centres unmarked) [Compound 11], the figure is less than 30 nM; as for `Cc1c(CN2CCC(Nc3ncnc4sc(CC(F)(F)F)cc34)CC2)ccc2c1cc(C#N)n2CCN1CCC2(CCNC2)C1` (centres unmarked) [Compound 171], 30 to 100 nM. As for `C=CC(=O)N1CCN(CCCn2c(C#N)cc3cc(CN4CCC(Nc5ncnc6sc(CC(F)(F)F)cc56)CC4)ccc32)CC1` [Compound 2], the IC50 was 30 to 100 nM.

In the case of `C=CC(=O)N1CC2CCC(C1)N2CCn1c(C#N)cc2c(C)c(CN3CCC(Nc4ncnc5sc(CC(F)(F)F)cc45)CC3)ccc21` [Compound 229], the IC50 was less than 30 nM. In the case of `C=CC(=O)N1CCC2(CC1)CN(CCn1c(C#N)cc3c(C)c(CN4CCC(Nc5ncnc6sc(CC(F)(F)F)cc56)CC4)ccc31)C2` [Compound 178] it was 30 to 100 nM; in that of `Cc1c(CN2CCC(Nc3ncnc4sc(CC(F)(F)F)cc34)CC2)ccc2c1cc(C#N)n2CCc1cccc(P(C)(C)=O)c1` [Compound 204], 30 to 100 nM. As for `C#CC(=O)N1CCN(CCn2c(C#N)cc3c(C)c(CN4CCC(Nc5ncnc6sc(CC(F)(F)F)cc56)CC4)ccc32)CC1` [Compound 5], the IC50 was 30 to 100 nM. In the case of `C=CS(=O)(=O)NC1CCN(CCn2c(C#N)cc3c(C)c(CN4CCC(Nc5ncnc6sc(CC(F)(F)F)cc56)CC4)ccc32)CC1` [Compound 232] it was less than 30 nM; in that of `Cc1c(CN2CCC(Nc3ncnc4sc(CC(F)(F)F)cc34)CC2)ccc2c1cc(C#N)n2CCP(C)(C)=O` [Compound 218], 100 to 1000 nM; in that of `C=CC(=O)Nc1ccc(C(O)Cn2c(C#N)cc3c(C)c(CN4CCC(Nc5ncnc6sc(CC(F)(F)F)cc56)CC4)ccc32)cc1` (centres unmarked) [Compound 101], less than 30 nM. Turning to `C=CS(=O)(=O)N1CCN(CCn2c(C#N)cc3c(C)c(CN4CCC(Nc5ncnc6sc(CC(F)(F)F)cc56)CC4)ccc32)C[C@@H]1C` [Compound 230], the IC50 is less than 30 nM. As for `C=CS(=O)(=O)Nc1ccc(CCn2c(C#N)cc3c(C)c(CN4CCC(Nc5ncnc6sc(CC(F)(F)F)cc56)CC4)ccc32)cc1` [Compound 231], the figure is less than 30 nM; as for `C/C=C/S(=O)(=O)N1CCN(CCn2c(C#N)cc3c(C)c(CN4CCC(Nc5ncnc6sc(CC(F)(F)F)cc56)CC4)ccc32)CC1` [Compound 7], less than 30 nM. As for `C=CC(=O)N1CCCN(CCn2c(C#N)cc3c(C)c(CN4CCC(Nc5ncnc6sc(CC(F)(F)F)cc56)CC4)ccc32)CC1` [Compound 66], the IC50 is less than 30 nM.

As for `C=CC(=O)Nc1ccc([C@@](C)(O)Cn2c(C#N)cc3c(C)c(CN4CCC(Nc5ncnc6sc(CC(F)(F)F)cc56)CC4)ccc32)cc1` [Compound 244], the IC50 fell in the range of 30 to 100 nM.

With `C=CC(=O)NC1CCN(CCn2c(C#N)cc3c(C)c(CN4CCC(Nc5ncnc6sc(CC(F)(F)F)cc56)CC4)ccc32)C1` (centres unmarked) [Compound 29], the IC50 is less than 30 nM.

`Cc1c(CN2CCC(Nc3ncnc4sc(CC(F)(F)F)cc34)CC2)ccc2c1cc(C#N)n2CCN1CCN(C(=O)/C=C/CN(C)C)CC1` [Compound 6]: the IC50 is less than 30 nM. In the case of `C=CC(=O)NC1CN(CCn2c(C#N)cc3c(C)c(CN4CCC(Nc5ncnc6sc(CC(F)(F)F)cc56)CC4)ccc32)C1` [Compound 28], the IC50 lay within 30 to 100 nM.

On to `Cc1c(CN2CCC(Nc3ncnc4sc(CC(F)(F)F)cc34)CC2)ccc2c1cc(C#N)n2CCc1cccc(N)c1` [Compound 189], for which the IC50 lay in the range of 30 to 100 nM.

Turning to `C[Si](C)(C)CCOCn1c(P(C)(C)=O)cc2cc(CN3CCC(Nc4ncnc5sc(CC(F)(F)F)cc45)CC3)ccc21` [Compound 207], the IC50 was greater than 1000 nM.

Turning to `C/C=C/C(=O)Nc1ccc(CCn2c(C#N)cc3c(C)c(CN4CCC(Nc5ncnc6sc(CC(F)(F)F)cc56)CC4)ccc32)cn1` [Compound 106], the IC50 fell in the range of 30 to 100 nM.

Regarding `Cc1c(CN2CCC(Nc3ncnc4sc(CC(F)(F)F)cc34)CC2)ccc2c1cc(C#N)n2CCN1CCC(NC(=O)/C=C/CN(C)C)CC1` [Compound 27], the IC50 is less than 30 nM. As for `C=CC(=O)Nc1ccc(C(O)Cn2c(C#N)cc3c(C)c(CN4CCC(Nc5ncnc6sc(CC(F)(F)F)cc56)CC4)ccc32)cn1` (centres unmarked) [Compound 112], the figure is less than 30 nM; as for `C=CC(=O)NC1CCN(CCn2c(C#N)cc3cc(CN4CCC(Nc5ncnc6sc(CC(F)(F)F)cc56)CC4)c(O)cc32)CC1` [Compound 93], less than 30 nM; as for `C=CC(=O)NN1CCN(CCn2c(C#N)cc3c(C)c(CN4CCC(Nc5ncnc6sc(CC(F)(F)F)cc56)CC4)ccc32)CC1` [Compound 94], 30 to 100 nM. As to `C=CC(=O)NC1CCC(Cn2c(C#N)cc3c(C)c(CN4CCC(Nc5ncnc6sc(CC(F)(F)F)cc56)CC4)ccc32)C1` (centres unmarked) [Compound 219], the IC50 was 30 to 100 nM.

In the case of `Cc1c(CN2CCC(Nc3ncnc4sc(CC(F)(F)F)cc34)CC2)ccc2c1cc(C#N)n2CCc1ccc(N)c(S(C)(=O)=O)c1` [Compound 104], the IC50 lay in the range of 30 to 100 nM. Consider `C=CS(=O)(=O)N1C2CCC1CN(CCn1c(C#N)cc3c(C)c(CN4CCC(Nc5ncnc6sc(CC(F)(F)F)cc56)CC4)ccc31)C2` [Compound 23], for which the IC50 was less than 30 nM. In the case of `C=CC(=O)N1CC2CN(CCn3c(C#N)cc4c(C)c(CN5CCC(Nc6ncnc7sc(CC(F)(F)F)cc67)CC5)ccc43)CC2C1` (centres unmarked) [Compound 168] it was 30 to 100 nM.

As for `C=CC(=O)Nc1ccc(CCn2c(C#N)cc3c(C)c(CN4CCC(Nc5ncnc6sc(CC(F)(F)F)cc56)CC4)ccc32)cc1P(C)(C)=O` [Compound 199], the IC50 was less than 30 nM. In the case of `C=CC(=O)Nc1ccc(CCn2c(C#N)cc3c(C)c(CN4CCC(Nc5ncnc6sc(CC(F)(F)F)cc56)CC4)ccc32)cc1P(=O)(C(C)C)C(C)C` [Compound 206] it was 100 to 1000 nM; in that of `C=CC(=O)Nc1ccc(CCn2c(C#N)cc3c(C)c(CN4CCC(Nc5ncnc6sc(CC(F)(F)F)cc56)CC4)ccc32)cc1S(C)(=O)=O` [Compound 105], less than 30 nM; in that of `C=CC(=O)Nc1ccc(CCn2c(C#N)cc3c(C)c(CN4CCC(Nc5ncnc6sc(CC(F)(F)F)cc56)CC4)ccc32)cn1` [Compound 100, N-(5-(2-(2-cyano-4-methyl-5-((4-(6-(2,2,2-trifluoroethyl)thieno[2,3-d]pyrimidin-4-ylamino)piperidin-1-yl)methyl)-1H-indol-1-yl)ethyl)pyridin-2-yl)acrylamide], less than 30 nM. In the case of `C=CC(=O)Nc1cn(CCn2c(C#N)cc3c(C)c(CN4CCC(Nc5ncnc6sc(CC(F)(F)F)cc56)CC4)ccc32)cn1` [Compound 192] it was 100 to 1000 nM.

Consider `Cc1c(CN2CCC(Nc3ncnc4sc(CC(F)(F)F)cc34)CC2)ccc2c1cc(C#N)n2CCc1ccc(N)c(C#N)c1` [Compound 193], for which the IC50 was in the range of 100 to 1000 nM. On to `CCC(=O)N1CCC(C(O)Cn2c(C#N)cc3c(C)c(CN4CCC(Nc5ncnc6sc(CC(F)(F)F)cc56)CC4)ccc32)CC1` (centres unmarked) [Compound 211], for which the IC50 lay in the range of 100 to 1000 nM. Turning to `CCC(=O)N1CCCN(CCn2c(C#N)cc3c(C)c(CN4CCC(Nc5ncnc6sc(CC(F)(F)F)cc56)CC4)ccc32)CC1` [Compound 103], the IC50 was 30 to 100 nM. As to `C=CC(=O)Nc1nc(CCn2c(C#N)cc3c(C)c(CN4CCC(Nc5ncnc6sc(CC(F)(F)F)cc56)CC4)ccc32)cs1` [Compound 34, N-(4-(2-(2-cyano-4-methyl-5-((4-((6-(2,2,2-trifluoroethyl)thieno[2,3-d]pyrimidin-4-yl)amino)piperidin-1-yl)methyl)-1H-indol-1-yl)ethyl)thiazol-2-yl)acrylamide], the IC50 lay in the range of 30 to 100 nM. In the case of `Cc1c(CN2CCC(Nc3ncnc4sc(CC(F)(F)F)cc34)CC2)ccc2c1cc(C#N)n2CC(O)c1cccc(S(C)(=O)=O)c1` (centres unmarked) [Compound 197], the IC50 was in the range of 30 to 100 nM. Regarding `C=CC(=O)Nc1ccc(CCn2c(C#N)cc3c(C)c(CN4CCC(Nc5ncnc6sc(CC(F)(F)F)cc56)CC4)ccc32)cc1P(=O)(CC)CC` [Compound 203], the IC50 was less than 30 nM. Take `C=CC(=O)N1CCC(Cn2c(C#N)cc3c(C)c(CN4CCC(Nc5ncnc6sc(CC(F)(F)F)cc56)CC4)ccc32)C1` (centres unmarked) [Compound 208]: the 50% inhibitory concentration (IC50) fell in the range of 30 to 100 nM. In the case of `C=CC(=O)N1CCC(C(O)Cn2c(C#N)cc3c(C)c(CN4CCC(Nc5ncnc6sc(CC(F)(F)F)cc56)CC4)ccc32)CC1` (centres unmarked) [Compound 210] it was 100 to 1000 nM; in that of `C=CC(=O)Nc1ccc(CCn2c(C#N)cc3c(C)c(CN4CCC(Nc5ncnc6sc(CC(F)(F)F)cc56)CC4)ccc32)cc1` [Compound 81, N-(4-(2-(2-cyano-4-methyl-5-((4-(6-(2,2,2-trifluoroethyl)thieno[2,3-d]pyrimidin-4-ylamino)piperidin-1-yl)methyl)-1H-indol-1-yl)ethyl)phenyl)acrylamide], less than 30 nM; in that of `C=CC(=O)Nc1ccc(CCn2c(C#N)cc3c(C)c(CN4CCC(Nc5ncnc6sc(CC(F)(F)F)cc56)CC4)ccc32)cc1C#N` [Compound 194], 30 to 100 nM. For the molecule `Cc1c(CN2CCC(Nc3ncnc4sc(CC(F)(F)F)cc34)CC2)ccc2c1cc(C#N)n2CCN1CCC2(CCNC2)CC1` [Compound 169], the IC50 lay within 30 to 100 nM.
